Laboratory results taken from patent US20250041312A1, “METHODS OF ADMINISTERING A MODULATOR OF HEMOGLOBIN” (Global Blood Therapeutics, Inc., priority 2021, published 2025).
Read-outs that look alike come from different tables or passages of the source.

Assay: SAD study in healthy volunteers: PK in plasma, whole blood, red blood cells
Format: in vivo, human
Conditions: human; for half-life: read-out: t1/2 (converted); for Tmax: median
Description: To evaluate the safety and tolerability of single ascending doses of Compound I, 48 healthy volunteers (42 in the fasted state and 6 in the fed state) aged 18 to 55 years old were administered single ascending doses (50 mg to 2200 mg) of Compound I, while 16 healthy volunteers (14 in the fasted state and 2 in the fed state) aged 18 to 55 years old were administered placebo in a double blind, randomized, sequential manner.
Whole blood pharmacokinetic (PK) parameters, using actual sample collection times, and hemoglobin occupancy after single ascending dose are shown in Table 5 (containing data from both healthy volunteers and SCD subjects) and Table 6 (containing data from only healthy volunteer subjects).

`O=Cc1c(O)cccc1OC[C@@H]1COCCN1C(=O)c1cccnc1CCO` [Compound I, (S)-2-hydroxy-6-((4-(2-(2-hydroxyethyl)nicotinoyl)morpholin-3-yl)methoxy)benzaldehyde] showed a Cmax (whole blood, 2200 mg, HV single 2200 mg, mean) of 390 µg/mL, an AUC(0-t) (whole blood, 2200 mg, HV single 2200 mg, whole blood, mean, blood collected up to day 7, read-out: AUC0-t) of 48000 µg·h/mL and a Cmax (whole blood, po, 50 mg, HV single oral 50 mg (Cohort 1), geometric mean) of 8 µg/mL. The AUC(0-t) (whole blood, po, 50 mg, HV single oral 50 mg (Cohort 1), whole blood, geometric mean, read-out: AUClast) was 6810 µg·h/mL, the half-life (whole blood, po, 50 mg, HV single oral 50 mg (Cohort 1), whole blood, geometric mean) was 683 h and the Cmax (whole blood, po, 100 mg, HV single oral 100 mg (Cohort 2), geometric mean) was 17.3 µg/mL. The AUC(0-t) (whole blood, po, 100 mg, HV single oral 100 mg (Cohort 2), whole blood, geometric mean, read-out: AUClast) was 14300 µg·h/mL, the half-life (whole blood, po, 100 mg, HV single oral 100 mg (Cohort 2), whole blood, geometric mean) was 698 h and the Cmax (whole blood, po, 200 mg, HV single oral 200 mg (Cohort 3), geometric mean) was 34.2 µg/mL. The AUC(0-t) (whole blood, po, 200 mg, HV single oral 200 mg (Cohort 3), whole blood, geometric mean, read-out: AUClast) was 28600 µg·h/mL, the half-life (whole blood, po, 200 mg, HV single oral 200 mg (Cohort 3), whole blood, geometric mean) was 677 h and the Cmax (whole blood, po, 400 mg, HV single oral 400 mg (Cohort 5), geometric mean) was 87.6 µg/mL. The AUC(0-t) (whole blood, po, 400 mg, HV single oral 400 mg (Cohort 5), whole blood, geometric mean, read-out: AUClast) was 62200 µg·h/mL, the half-life (whole blood, po, 400 mg, HV single oral 400 mg (Cohort 5), whole blood, geometric mean) was 609 h and the Cmax (whole blood, po, 800 mg, HV single oral 800 mg (Cohort 6), geometric mean) was 149 µg/mL. For the same compound, the AUC(0-t) (whole blood, po, 800 mg, HV single oral 800 mg (Cohort 6), whole blood, geometric mean, read-out: AUClast) was 103000 µg·h/mL, the half-life (whole blood, po, 800 mg, HV single oral 800 mg (Cohort 6), whole blood, geometric mean) was 625 h and the Cmax (whole blood, po, 1400 mg, HV single oral 1400 mg (Cohort 7), geometric mean) was 230 µg/mL. The AUC(0-t) (whole blood, po, 1400 mg, HV single oral 1400 mg (Cohort 7), whole blood, geometric mean, read-out: AUClast) was 192000 µg·h/mL, the half-life (whole blood, po, 1400 mg, HV single oral 1400 mg (Cohort 7), whole blood, geometric mean) was 656 h and the Cmax (whole blood, po, 2200 mg, HV single oral 2200 mg (Cohort 8), geometric mean) was 387 µg/mL. It also gave an AUC(0-t) (whole blood, po, 2200 mg, HV single oral 2200 mg (Cohort 8), whole blood, geometric mean, read-out: AUClast) of 264000 µg·h/mL, a half-life (whole blood, po, 2200 mg, HV single oral 2200 mg (Cohort 8), whole blood, geometric mean) of 590 h and a Tmax (HV single 50 mg, whole blood) of 24 h. It also gave a Tmax (HV single 100 mg, whole blood) of 24 h, a Tmax (HV single 200 mg, whole blood) of 8 h and a Tmax (HV single 400 mg, whole blood) of 8 h. It also gave a Tmax (HV single 800 mg, whole blood) of 16 h, a Tmax (HV single 1400 mg, whole blood) of 12 h and a Tmax (HV single 2200 mg, whole blood) of 24 h. It also gave an AUC(0-inf) (HV single oral 50 mg (Cohort 1), plasma, geometric mean) of 34.2 µg·h/mL, a Tmax (HV single oral 50 mg (Cohort 1), plasma) of 0.75 h and an AUC(0-inf) (HV single oral 50 mg (Cohort 1), red blood cells (calculated conc.), geometric mean) of 18100 µg·h/mL. The Tmax (HV single oral 50 mg (Cohort 1), red blood cells (conc. calculated from blood, plasma, hematocrit)) was 24 h, the AUC(0-inf) (HV single oral 50 mg (Cohort 1), whole blood, geometric mean) was 7490 µg·h/mL and the Tmax (HV single oral 50 mg (Cohort 1), whole blood) was 24 h. It also gave an AUC(0-inf) (HV single oral 100 mg (Cohort 2), plasma, geometric mean) of 74.5 µg·h/mL, a Tmax (HV single oral 100 mg (Cohort 2), plasma) of 1 h and an AUC(0-inf) (HV single oral 100 mg (Cohort 2), red blood cells (calculated conc.), geometric mean) of 38500 µg·h/mL. It also gave a Tmax (HV single oral 100 mg (Cohort 2), red blood cells (calculated conc.)) of 24 h, an AUC(0-inf) (HV single oral 100 mg (Cohort 2), whole blood, geometric mean) of 15900 µg·h/mL and a Tmax (HV single oral 100 mg (Cohort 2), whole blood) of 24 h. For the same compound, the AUC(0-inf) (HV single oral 200 mg (Cohort 3), plasma, geometric mean) was 152 µg·h/mL, the Tmax (HV single oral 200 mg (Cohort 3), plasma) was 1 h and the AUC(0-inf) (HV single oral 200 mg (Cohort 3), red blood cells (calculated conc.), geometric mean) was 71200 µg·h/mL. For the same compound, the Tmax (HV single oral 200 mg (Cohort 3), red blood cells (calculated conc.)) was 8 h, the AUC(0-inf) (HV single oral 200 mg (Cohort 3), whole blood, geometric mean) was 31600 µg·h/mL and the Tmax (HV single oral 200 mg (Cohort 3), whole blood) was 8 h. It also gave an AUC(0-inf) (HV single oral 400 mg (Cohort 5), plasma, geometric mean) of 361 µg·h/mL, a Tmax (HV single oral 400 mg (Cohort 5), plasma) of 1 h and an AUC(0-inf) (HV single oral 400 mg (Cohort 5), red blood cells (calculated conc.), geometric mean) of 163000 µg·h/mL. The Tmax (HV single oral 400 mg (Cohort 5), red blood cells (calculated conc.)) was 10 h, the AUC(0-inf) (HV single oral 400 mg (Cohort 5), whole blood, geometric mean) was 67200 µg·h/mL and the Tmax (HV single oral 400 mg (Cohort 5), whole blood) was 8 h. The AUC(0-inf) (HV single oral 800 mg (Cohort 6), plasma, geometric mean) was 623 µg·h/mL, the Tmax (HV single oral 800 mg (Cohort 6), plasma) was 2.5 h and the AUC(0-inf) (HV single oral 800 mg (Cohort 6), red blood cells (calculated conc.), geometric mean) was 266000 µg·h/mL. The Tmax (HV single oral 800 mg (Cohort 6), red blood cells (calculated conc.)) was 36 h, the AUC(0-inf) (HV single oral 800 mg (Cohort 6), whole blood, geometric mean) was 111000 µg·h/mL and the Tmax (HV single oral 800 mg (Cohort 6), whole blood) was 16 h. The AUC(0-inf) (HV single oral 1400 mg (Cohort 7), plasma, geometric mean) was 1080 µg·h/mL, the Tmax (HV single oral 1400 mg (Cohort 7), plasma) was 2.5 h and the AUC(0-inf) (HV single oral 1400 mg (Cohort 7), red blood cells (calculated conc.), geometric mean) was 499000 µg·h/mL. For the same compound, the Tmax (HV single oral 1400 mg (Cohort 7), red blood cells (calculated conc.)) was 30 h, the AUC(0-inf) (HV single oral 1400 mg (Cohort 7), whole blood, geometric mean) was 210000 µg·h/mL and the Tmax (HV single oral 1400 mg (Cohort 7), whole blood) was 12 h. The AUC(0-inf) (HV single oral 2200 mg (Cohort 8), plasma, geometric mean) was 1430 µg·h/mL, the Tmax (HV single oral 2200 mg (Cohort 8), plasma) was 3.5 h and the AUC(0-inf) (HV single oral 2200 mg (Cohort 8), red blood cells (calculated conc.), geometric mean) was 670000 µg·h/mL. For the same compound, the Tmax (HV single oral 2200 mg (Cohort 8), red blood cells (calculated conc.)) was 24 h, the AUC(0-inf) (HV single oral 2200 mg (Cohort 8), whole blood, geometric mean) was 282000 µg·h/mL and the Tmax (HV single oral 2200 mg (Cohort 8), whole blood) was 24 h. For the same compound, the Tmax (healthy volunteers n=6, single 100 mg, plasma) was 1 h.
